# Results reported in paper PMC6138237, “Machine intelligence decrypts β-lapachone as an allosteric 5-lipoxygenase inhibitor” (Chemical Science, 2018).
# Read-outs that look alike come from different tables or passages of the source.
# How the values were obtained:
# Type in all cases: biochemical
# EphA2 = EphA2 (Homo sapiens, UniProt P29317); assay: ExpresS Diversity Kinase Profile, Cerep (LANCE): EphA2
# AurA = molecular target: T1, AurA (Homo sapiens, UniProt O14965); assay: ExpresS Diversity Kinase Profile, Cerep (LANCE): AurA
# T1 sequence (O14965 1-403): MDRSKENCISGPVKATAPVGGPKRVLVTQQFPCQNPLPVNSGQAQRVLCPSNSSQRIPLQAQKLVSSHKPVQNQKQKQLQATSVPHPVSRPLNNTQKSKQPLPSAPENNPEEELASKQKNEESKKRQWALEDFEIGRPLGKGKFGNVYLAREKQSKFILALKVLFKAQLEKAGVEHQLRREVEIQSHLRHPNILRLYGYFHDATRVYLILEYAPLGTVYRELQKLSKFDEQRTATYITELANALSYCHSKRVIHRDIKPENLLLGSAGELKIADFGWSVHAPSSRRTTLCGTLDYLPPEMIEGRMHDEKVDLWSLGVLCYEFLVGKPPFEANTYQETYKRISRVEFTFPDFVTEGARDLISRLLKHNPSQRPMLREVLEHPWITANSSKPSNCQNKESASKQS
# Akt1/PKBα = Akt1/PKBα (Homo sapiens, UniProt P31749); assay: ExpresS Diversity Kinase Profile, Cerep (LANCE): Akt1/PKBα; details: for inhibition at 150 µM: Akt1/PKBα, Flag: Interference
# Chain of Akt1/PKBα (P31749 whole entry): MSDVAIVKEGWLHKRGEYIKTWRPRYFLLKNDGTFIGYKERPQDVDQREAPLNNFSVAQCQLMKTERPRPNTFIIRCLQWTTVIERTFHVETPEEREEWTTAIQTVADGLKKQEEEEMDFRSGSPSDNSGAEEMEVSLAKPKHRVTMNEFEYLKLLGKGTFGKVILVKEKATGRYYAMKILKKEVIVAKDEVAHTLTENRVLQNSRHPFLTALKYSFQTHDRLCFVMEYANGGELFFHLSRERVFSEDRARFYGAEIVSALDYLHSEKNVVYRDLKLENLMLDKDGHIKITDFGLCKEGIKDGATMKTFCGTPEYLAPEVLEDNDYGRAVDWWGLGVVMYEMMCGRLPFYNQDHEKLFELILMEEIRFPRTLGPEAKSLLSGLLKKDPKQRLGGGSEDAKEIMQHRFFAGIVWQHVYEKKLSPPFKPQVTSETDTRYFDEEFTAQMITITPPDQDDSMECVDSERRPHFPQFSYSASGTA
# CDK1 = CDK1 (Homo sapiens, UniProt P06493); assay: ExpresS Diversity Kinase Profile, Cerep (LANCE): CDK1
# Chain of CDK1 (P06493 whole entry): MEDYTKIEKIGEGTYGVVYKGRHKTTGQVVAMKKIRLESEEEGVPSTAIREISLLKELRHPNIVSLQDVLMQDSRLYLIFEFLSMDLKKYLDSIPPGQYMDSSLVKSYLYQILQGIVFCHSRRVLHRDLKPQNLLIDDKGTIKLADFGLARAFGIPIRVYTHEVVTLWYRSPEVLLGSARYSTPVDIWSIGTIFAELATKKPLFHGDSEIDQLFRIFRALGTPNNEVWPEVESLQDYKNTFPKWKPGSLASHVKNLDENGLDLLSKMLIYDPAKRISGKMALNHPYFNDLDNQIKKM
# Chain of CDK1 (P14635 whole entry partner): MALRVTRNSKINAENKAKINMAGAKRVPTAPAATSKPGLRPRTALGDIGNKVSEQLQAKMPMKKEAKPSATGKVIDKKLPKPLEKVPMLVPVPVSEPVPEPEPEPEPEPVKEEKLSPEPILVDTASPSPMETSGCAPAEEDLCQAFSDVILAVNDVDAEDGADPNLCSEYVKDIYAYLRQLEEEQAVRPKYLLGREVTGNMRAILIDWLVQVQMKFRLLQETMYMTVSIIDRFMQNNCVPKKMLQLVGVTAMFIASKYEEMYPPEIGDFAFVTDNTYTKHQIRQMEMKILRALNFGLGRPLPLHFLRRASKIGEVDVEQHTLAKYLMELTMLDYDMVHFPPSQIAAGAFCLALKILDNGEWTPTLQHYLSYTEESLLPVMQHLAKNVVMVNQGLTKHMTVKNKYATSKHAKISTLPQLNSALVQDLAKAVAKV
# c-Met = c-Met (Homo sapiens, UniProt P08581); assay: ExpresS Diversity Kinase Profile, Cerep (LANCE): c-Met
# Chain of c-Met (P08581 25-1390): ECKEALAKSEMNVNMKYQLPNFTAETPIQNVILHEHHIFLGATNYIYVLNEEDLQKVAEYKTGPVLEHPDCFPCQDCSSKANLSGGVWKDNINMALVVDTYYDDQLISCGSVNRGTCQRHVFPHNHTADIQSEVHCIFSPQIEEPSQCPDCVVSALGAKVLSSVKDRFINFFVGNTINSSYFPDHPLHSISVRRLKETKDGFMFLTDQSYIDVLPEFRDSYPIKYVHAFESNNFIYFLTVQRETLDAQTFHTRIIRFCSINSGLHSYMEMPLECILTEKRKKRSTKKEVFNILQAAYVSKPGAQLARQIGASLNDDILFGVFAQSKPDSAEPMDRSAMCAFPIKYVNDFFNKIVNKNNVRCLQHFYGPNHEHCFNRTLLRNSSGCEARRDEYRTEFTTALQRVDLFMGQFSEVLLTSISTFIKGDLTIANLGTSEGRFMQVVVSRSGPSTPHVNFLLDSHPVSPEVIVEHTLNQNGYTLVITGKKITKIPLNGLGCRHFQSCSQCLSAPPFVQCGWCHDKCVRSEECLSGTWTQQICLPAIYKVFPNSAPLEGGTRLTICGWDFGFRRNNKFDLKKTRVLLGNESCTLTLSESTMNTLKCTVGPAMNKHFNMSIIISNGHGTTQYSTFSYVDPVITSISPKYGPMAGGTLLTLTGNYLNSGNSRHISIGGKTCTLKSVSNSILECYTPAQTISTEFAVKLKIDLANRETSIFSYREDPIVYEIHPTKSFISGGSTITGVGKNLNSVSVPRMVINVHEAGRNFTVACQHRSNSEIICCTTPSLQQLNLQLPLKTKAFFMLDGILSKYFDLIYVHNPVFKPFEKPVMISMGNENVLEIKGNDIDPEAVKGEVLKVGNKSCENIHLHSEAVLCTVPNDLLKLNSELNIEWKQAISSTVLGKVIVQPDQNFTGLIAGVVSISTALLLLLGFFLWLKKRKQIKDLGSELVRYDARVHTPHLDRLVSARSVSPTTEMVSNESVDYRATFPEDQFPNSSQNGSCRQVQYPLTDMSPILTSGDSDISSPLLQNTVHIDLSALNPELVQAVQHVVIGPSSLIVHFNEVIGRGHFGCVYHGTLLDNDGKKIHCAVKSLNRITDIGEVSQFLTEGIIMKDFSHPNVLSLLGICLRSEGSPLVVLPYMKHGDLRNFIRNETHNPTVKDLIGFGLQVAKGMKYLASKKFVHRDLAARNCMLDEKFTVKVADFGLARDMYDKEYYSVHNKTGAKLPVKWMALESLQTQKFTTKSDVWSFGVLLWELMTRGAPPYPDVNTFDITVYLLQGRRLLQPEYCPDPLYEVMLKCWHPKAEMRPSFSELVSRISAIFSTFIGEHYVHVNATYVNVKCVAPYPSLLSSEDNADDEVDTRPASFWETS
# PDK1 = molecular target: T2, PDK1 (Homo sapiens, UniProt O15530); assay: ExpresS Diversity Kinase Profile, Cerep (LANCE): PDK1
# T2 sequence (O15530 1-556): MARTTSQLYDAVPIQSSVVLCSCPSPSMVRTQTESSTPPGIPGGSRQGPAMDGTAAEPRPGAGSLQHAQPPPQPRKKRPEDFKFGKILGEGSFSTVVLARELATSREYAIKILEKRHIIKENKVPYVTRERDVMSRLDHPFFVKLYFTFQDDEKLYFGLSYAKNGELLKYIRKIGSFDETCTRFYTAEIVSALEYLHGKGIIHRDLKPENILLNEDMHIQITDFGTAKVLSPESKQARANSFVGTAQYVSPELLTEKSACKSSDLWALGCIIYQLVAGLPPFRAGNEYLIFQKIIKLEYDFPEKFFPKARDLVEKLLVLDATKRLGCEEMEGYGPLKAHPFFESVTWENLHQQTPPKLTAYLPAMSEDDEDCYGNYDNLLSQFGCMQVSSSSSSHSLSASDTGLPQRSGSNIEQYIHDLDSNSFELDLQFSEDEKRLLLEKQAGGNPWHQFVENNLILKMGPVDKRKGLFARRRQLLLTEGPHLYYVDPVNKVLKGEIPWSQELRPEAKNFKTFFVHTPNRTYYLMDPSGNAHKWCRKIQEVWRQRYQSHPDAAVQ
# JNK1 = JNK1 (Homo sapiens, UniProt P45983); assay: ExpresS Diversity Kinase Profile, Cerep (LANCE): JNK1
# Chain of JNK1 (P45983 whole entry): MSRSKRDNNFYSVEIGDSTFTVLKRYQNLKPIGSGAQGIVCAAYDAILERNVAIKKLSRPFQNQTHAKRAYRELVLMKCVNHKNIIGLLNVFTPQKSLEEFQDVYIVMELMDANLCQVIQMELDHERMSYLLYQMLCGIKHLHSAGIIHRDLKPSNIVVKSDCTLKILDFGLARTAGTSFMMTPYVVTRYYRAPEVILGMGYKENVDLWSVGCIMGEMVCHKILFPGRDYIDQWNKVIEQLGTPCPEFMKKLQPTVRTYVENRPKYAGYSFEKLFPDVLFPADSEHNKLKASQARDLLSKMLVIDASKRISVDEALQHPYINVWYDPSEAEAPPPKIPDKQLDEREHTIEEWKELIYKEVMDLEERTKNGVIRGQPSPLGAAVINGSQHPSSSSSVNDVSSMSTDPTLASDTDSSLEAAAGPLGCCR
# JAK3 = molecular target: T3, JAK3 (Homo sapiens, UniProt P52333); assay: ExpresS Diversity Kinase Profile, Cerep (LANCE): JAK3
# T3 sequence (P52333 1-1124): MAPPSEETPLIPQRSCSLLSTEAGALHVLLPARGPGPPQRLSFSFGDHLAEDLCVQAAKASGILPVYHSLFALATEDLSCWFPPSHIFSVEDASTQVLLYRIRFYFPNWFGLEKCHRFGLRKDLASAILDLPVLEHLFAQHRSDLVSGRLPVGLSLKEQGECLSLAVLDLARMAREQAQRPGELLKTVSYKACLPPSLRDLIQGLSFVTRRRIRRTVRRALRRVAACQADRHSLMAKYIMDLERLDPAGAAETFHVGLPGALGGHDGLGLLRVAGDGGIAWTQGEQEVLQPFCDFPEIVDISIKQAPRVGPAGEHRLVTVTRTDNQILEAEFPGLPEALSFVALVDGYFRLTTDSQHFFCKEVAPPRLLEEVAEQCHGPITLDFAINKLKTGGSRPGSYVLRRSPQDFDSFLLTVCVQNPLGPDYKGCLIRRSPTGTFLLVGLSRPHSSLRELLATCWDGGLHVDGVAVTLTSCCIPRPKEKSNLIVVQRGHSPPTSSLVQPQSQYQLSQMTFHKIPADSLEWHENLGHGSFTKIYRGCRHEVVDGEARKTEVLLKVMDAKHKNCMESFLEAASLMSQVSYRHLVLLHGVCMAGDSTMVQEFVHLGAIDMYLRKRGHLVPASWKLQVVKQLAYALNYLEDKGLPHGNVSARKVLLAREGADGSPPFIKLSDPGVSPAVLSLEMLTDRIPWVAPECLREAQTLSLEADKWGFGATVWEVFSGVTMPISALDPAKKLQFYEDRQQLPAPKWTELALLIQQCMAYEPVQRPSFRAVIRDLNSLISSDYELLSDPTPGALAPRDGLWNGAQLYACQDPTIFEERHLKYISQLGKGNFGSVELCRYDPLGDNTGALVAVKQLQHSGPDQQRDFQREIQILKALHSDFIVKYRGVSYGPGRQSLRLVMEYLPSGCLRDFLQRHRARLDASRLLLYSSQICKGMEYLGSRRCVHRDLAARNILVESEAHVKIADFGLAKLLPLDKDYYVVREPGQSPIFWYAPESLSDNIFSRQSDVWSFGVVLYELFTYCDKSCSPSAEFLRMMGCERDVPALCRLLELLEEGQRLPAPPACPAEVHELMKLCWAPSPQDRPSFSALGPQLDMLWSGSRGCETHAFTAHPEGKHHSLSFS
# [1] = Flag: Interference, read-out: % Inhibition of control values, 1st measurement
# [2] = Flag: Interference, read-out: % Inhibition of control values, 2nd measurement
# [3] = n = 2, Flag: Interference, read-out: % Inhibition of control values, Mean
# [4] = read-out: % Inhibition of control values, 1st measurement
# [5] = read-out: % Inhibition of control values, 2nd measurement
# [6] = n = 2, read-out: % Inhibition of control values, Mean
# Chain of EphA2 (P29317 24-976): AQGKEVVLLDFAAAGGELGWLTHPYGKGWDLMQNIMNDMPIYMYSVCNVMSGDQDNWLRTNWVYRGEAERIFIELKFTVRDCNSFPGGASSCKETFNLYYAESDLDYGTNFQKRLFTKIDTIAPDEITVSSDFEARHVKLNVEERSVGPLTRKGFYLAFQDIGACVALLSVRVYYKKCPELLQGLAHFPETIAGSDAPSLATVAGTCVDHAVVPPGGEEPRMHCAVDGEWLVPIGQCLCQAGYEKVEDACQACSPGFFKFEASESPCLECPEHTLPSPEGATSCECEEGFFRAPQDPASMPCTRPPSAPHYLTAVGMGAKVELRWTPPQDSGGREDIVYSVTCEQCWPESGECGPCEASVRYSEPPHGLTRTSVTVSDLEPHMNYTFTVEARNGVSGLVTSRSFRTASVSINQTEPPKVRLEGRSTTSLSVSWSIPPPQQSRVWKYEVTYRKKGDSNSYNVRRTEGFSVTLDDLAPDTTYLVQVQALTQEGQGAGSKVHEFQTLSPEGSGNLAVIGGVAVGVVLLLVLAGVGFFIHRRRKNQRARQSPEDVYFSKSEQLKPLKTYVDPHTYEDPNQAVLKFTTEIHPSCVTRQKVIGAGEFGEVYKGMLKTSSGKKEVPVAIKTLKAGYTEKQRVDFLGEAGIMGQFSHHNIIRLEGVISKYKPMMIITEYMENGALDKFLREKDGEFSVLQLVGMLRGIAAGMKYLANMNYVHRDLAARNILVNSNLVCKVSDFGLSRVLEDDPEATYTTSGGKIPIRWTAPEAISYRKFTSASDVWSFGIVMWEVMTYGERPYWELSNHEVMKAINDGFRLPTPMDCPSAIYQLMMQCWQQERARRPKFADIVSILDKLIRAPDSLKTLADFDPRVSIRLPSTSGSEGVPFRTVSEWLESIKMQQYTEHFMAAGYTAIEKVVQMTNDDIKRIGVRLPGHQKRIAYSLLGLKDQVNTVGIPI
smiles,measurement,setting,value
"CN[C@@H]1C[C@H]2O[C@@](C)([C@@H]1OC)n1c3ccccc3c3c4c(c5c6ccccc6n2c5c31)C(=O)NC4 [Staurosporine, reference compound]",nHill,EphA2; control,1.6
same,nHill,AurA; control,2.5
same,nHill,"Akt1/PKBα; Akt/PKBα, control",0.8
same,nHill,CDK1; control,1.1
same,nHill,c-Met; control,1.8
same,nHill,PDK1; control,> 3
same,nHill,JNK1; control,1.8
same,nHill,JAK3; control,2.2
CC1(C)CCC2=C(O1)c1ccccc1C(=O)C2=O [β-Lapachone],inhibition at 150 µM,EphA2; [1],63.7%
same,inhibition at 150 µM,EphA2; [2],63.5%
same,inhibition at 150 µM,EphA2; [3],63.6%
same,inhibition at 150 µM,AurA; [1],-16.5%
same,inhibition at 150 µM,AurA; [2],0.2%
same,inhibition at 150 µM,AurA; [3],-8.1%
same,inhibition at 150 µM,Akt1/PKBα; [4],65.8%
same,inhibition at 150 µM,Akt1/PKBα; [5],55%
same,inhibition at 150 µM,Akt1/PKBα; [6],60.4%
same,inhibition at 150 µM,CDK1; [1],66%
same,inhibition at 150 µM,CDK1; [2],68%
same,inhibition at 150 µM,CDK1; [3],67%
same,inhibition at 150 µM,c-Met; [1],45.3%
same,inhibition at 150 µM,c-Met; [2],50.6%
same,inhibition at 150 µM,c-Met; [3],47.9%
same,inhibition at 150 µM,PDK1; [6],1.4%
same,inhibition at 150 µM,PDK1; [4],8.9%
same,inhibition at 150 µM,PDK1; [5],-6.1%
same,inhibition at 150 µM,JNK1; [1],59.8%
same,inhibition at 150 µM,JNK1; [2],55.6%
same,inhibition at 150 µM,JNK1; [3],57.7%
same,inhibition at 150 µM,JAK3; [6],69%
same,inhibition at 150 µM,JAK3; [4],83.6%
same,inhibition at 150 µM,JAK3; [5],54.5%
